Holding throughout (format): in vivo
The subject of data set [1] is Beet Armyworm (Spodoptera exigua, LAPHEG). As to the kind of experiment: Bioassays on Beet Armyworm (BAW), 128-well diet tray assay. Conditions: Spodoptera exigua. The essentials: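 Mortality of second-instar larvae (1–5/well) on artificial diet treated with 50 μg/cm^2 compound, read after 5–7 days at 25° C.; values are means of eight wells.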
The subject of data set [2] is Yellow Fever Mosquito (Aedes aegypti, AEDSAE). Conditions: for YFM rating: Table ABC / ABC-DP rating. The essentials: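 Mortality after 3 days at room temperature is the read-out, scored well by well and converted to a rating. Test molecules came from 4000 ppm stocks in DMSO, further diluted in 90:10 water/acetone, and were exposed to roughly 1-day-old larvae suspended in liver-powder water.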

Data set [3] deals with Cabbage Looper (Trichoplusia ni, TRIPNI). As to the kind of experiment: Bioassays on Cabbage Looper (CL), 128-well diet tray assay. Conditions: Trichoplusia ni. In outline: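 Each of eight wells receives artificial diet treated at 50 μg/cm^2 with the test molecule, then one to five second-instar larvae. Incubation runs five to seven days at 25° C with a 14:10 light-dark cycle under vented covers. Mortality is scored per well as a percentage and averaged.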

[4] abbreviates: Beet Armyworm, rating class, read-out: BAW.
[5] abbreviates: Yellow Fever Mosquito, rating class.
Setting [6] is: Cabbage Looper, rating class, read-out: CL.
Where [7] appears, read: Table ABC: Biological Results, species BAW, read-out: BAW.
Setting [8] is: Table ABC: Biological Results, species YFM.
The mark [9] stands for this setting: Table ABC: Biological Results, species CL, read-out: CL.
Where [10] appears, read: Beet Armyworm, Table ABC / ABC-DP rating, read-out: BAW rating.
[11] abbreviates: Cabbage Looper, Table ABC / ABC-DP rating, read-out: CL rating.

A word on the mortality: it is the percentage killed.

Where two headings read alike, the source gives them in different places.

For the compound `CO[C@H](C)C(=O)Nc1c(F)ccc(NC(=O)c2cc(NC(=O)[C@H]3[C@H](c4ccc(F)c(C(F)(F)F)c4)C3(Cl)Cl)ccc2Cl)c1F` [F1689, 2-Chloro-5-((1R,3R)-2,2-dichloro-3-(4-fluoro-3-(trifluoromethyl)phenyl)cyclopropane-1-carboxamido)-N-(2,4-difluoro-3-((R)-2-methoxypropanamido)phenyl)benzamide], the pest or weed control at 50 µg/cm2 in data set [1] (setting [4]) and in data set [3] (setting [6]) was 50 to 100% throughout. Moreover, the YFM result in data set [2] (setting [5]) was “B (More than 0 – Less than 80)”.
In the case of `CCOCC(=O)Nc1c(F)ccc(NC(=O)c2cc(NC(=O)[C@H]3[C@H](c4ccc(F)c(C(F)(F)F)c4)C3(Cl)Cl)ccc2Cl)c1F` [F1363, 2-Chloro-5-((1R,3R)-2,2-dichloro-3-(4-fluoro-3-(trifluoromethyl)phenyl)cyclopropane-1-carboxamido)-N-(3-(2-ethoxyacetamido)-2,4-difluorophenyl)benzamide], the pest or weed control at 50 µg/cm2 in data set [1] (setting [7]) and in data set [3] (setting [9]) was 50 to 100% each time. For the same compound, the YFM result in data set [2] (setting [8]) is reported as “A (80–100)”.
Regarding `O=C(Nc1cc(NC(=O)C(F)F)c(F)c(F)c1F)c1cc(NC(=O)[C@H]2[C@H](c3ccc(F)c(C(F)(F)F)c3)C2(Cl)Cl)ccc1Cl` [F1744, 2-Chloro-5-((1R,3R)-2,2-dichloro-3-(4-fluoro-3-(trifluoromethyl)phenyl)cyclopropane-1-carboxamido)-N-(5-(2,2-difluoroacetamido)-2,3,4-trifluorophenyl)benzamide], the pest or weed control at 50 µg/cm2 in data set [1] (setting [4]) and in data set [3] (setting [6]) was 50 to 100% throughout. Also, the YFM entry in data set [2] (setting [5]) is recorded as “A (80–100)”.
As for `CCCC(=O)Nc1c(F)ccc(NC(=O)c2cc(NC(=O)[C@H]3[C@H](c4ccc(F)c(C(F)(F)F)c4)C3(Cl)Cl)ccc2Cl)c1F` [F1385, N-(3-Butyramido-2,4-difluorophenyl)-2-chloro-5-((1R,3R)-2,2-dichloro-3-(4-fluoro-3-(trifluoromethyl)phenyl)cyclopropane-1-carboxamido)benzamide], the pest or weed control at 50 µg/cm2 in data set [1] (setting [7]) and in data set [3] (setting [9]) was 50 to 100% throughout. The YFM result in data set [2] (setting [8]) was “A (80–100)”.
Turning to `CN(N=CCC(F)(F)F)C(=O)c1cc(NC(=O)[C@H]2[C@H](c3cc(Cl)cc(Cl)c3)C2(Cl)Cl)ccc1Cl` (relative stereo) [F3009, trans-2,2-dichloro-N-(4-chloro-3-(1-methyl-2-(3,3,3-trifluoropropylidene)hydrazine-1-carbonyl)phenyl)-3-(3,5-dichlorophenyl)cyclopropane-1-carboxamide], the mortality at 50 µg/cm2 was 50 to 100% in data set [1] (168 h, second instar larvae, 50 μg/cm^2 of test molecule on artificial diet, 25° C., five to seven days, average of eight wells, read-out: BAW % Control (or Mortality) rating) and 50 to 100% in data set [3] (168 h, second instar larvae, 50 μg/cm^2 of test molecule on artificial diet, 25° C., five to seven days, average of eight wells, read-out: CL % Control (or Mortality) rating). For the same compound, the pest or weed control at 50 µg/cm2 in data set [1] (setting [10]) and in data set [3] (setting [11]) was 50 to 100% throughout. Also, the YFM rating result in data set [2] (Yellow Fever Mosquito) is on record as “A (80–100)”. For the same compound, in data set [2] (about 1 day-old larvae, 4000 ppm master solution diluted with 90:10 water/acetone, 15 μL per well plus 220 μL larval mixture, 3 days, mortality), the “YFM % Control (or Mortality) rating” value is given as “A (80–100)”.
Regarding `C=C(F)c1cc(F)ccc1NC(=O)c1cc(NC(=O)[C@H]2[C@H](c3cc(Cl)cc(Cl)c3)C2(Cl)Cl)ccc1Cl` (relative stereo) [F1319, trans-2-Chloro-5-(2,2-dichloro-3-(3,5-dichlorophenyl)cyclopropane-1-carboxamido)-N-(4-fluoro-2-(1-fluorovinyl)phenyl)benzamide], the pest or weed control at 50 µg/cm2 in data set [1] (setting [7]) and in data set [3] (setting [9]) was 50 to 100% throughout. Moreover, in data set [2] (setting [8]), the YFM result is given as “A (80–100)”.
As to `O=C(NCC(F)(F)F)c1cc(NC(=O)[C@H]2[C@H](c3c(F)c(F)c(F)c(F)c3F)C2(Cl)Cl)ccc1Cl` (relative stereo) [F2002, trans-2-Chloro-5-(2,2-dichloro-3-(perfluorophenyl)cyclopropane-1-carboxamido)-N-(2,2,2-trifluoroethyl)benzamide], the pest or weed control at 50 µg/cm2 in data set [1] (setting [10]) and in data set [3] (setting [11]) was 50 to 100% throughout. Moreover, the YFM rating result in data set [2] (Yellow Fever Mosquito) is “A (80–100)”.
Take `O=C(Nc1cc(NC(=O)C(F)(F)F)c(F)cc1F)c1cc(NC(=O)[C@H]2[C@H](c3ccc(Cl)c(Cl)c3)C2(Cl)Cl)ccc1F` [F1510, 5-((1R,3R)-2,2-Dichloro-3-(3,4-dichlorophenyl)cyclopropane-1-carboxamido)-N-(2,4-difluoro-5-(2,2,2-trifluoroacetamido)phenyl)-2-fluorobenzamide]: the pest or weed control at 50 µg/cm2 in data set [1] (setting [4]) and in data set [3] (setting [6]) was 50 to 100% in each case. Also, in data set [2] (setting [5]), the YFM result is recorded as “A (80–100)”.
As for `Nc1c(F)ccc(NC(=O)c2cc(NC(=O)[C@H]3[C@H](c4cc(F)c(Cl)c(C(F)(F)F)c4)C3(Cl)Cl)ccc2Cl)c1F` (relative stereo) [F1167, trans-N-(3-Amino-2,4-difluorophenyl)-2-chloro-5-(2,2-dichloro-3-(4-chloro-3-fluoro-5-(trifluoromethyl)phenyl)cyclopropane-1-carboxamido)benzamide], the pest or weed control at 50 µg/cm2 in data set [1] (setting [7]) and in data set [3] (setting [9]) was 50 to 100% each time. Further, the YFM result in data set [2] (setting [8]) is given as “A (80–100)”.
As to `Nc1ccc(F)c(NC(=O)c2cc(NC(=O)[C@H]3[C@H](c4cc(Cl)cc(Cl)c4)C3(Cl)Cl)ccc2Cl)c1F` (relative stereo) [F1026, trans-N-(3-Amino-2,6-difluorophenyl)-2-chloro-5-(2,2-dichloro-3-(3,5-dichlorophenyl)cyclopropane-1-carboxamido)benzamide], the pest or weed control at 50 µg/cm2 in data set [1] (setting [7]) and in data set [3] (setting [9]) was 50 to 100% throughout. Moreover, the YFM entry in data set [2] (setting [8]) is listed as “A (80–100)”.
Regarding `O=C(Nc1ccc(F)c(NC(=O)C(F)(F)F)c1)c1cc(NC(=O)[C@H]2[C@H](c3ccc(F)c(C(F)(F)F)c3)C2(Cl)Cl)ccc1Cl` [F1815, 2-Chloro-5-((1R,3R)-2,2-dichloro-3-(4-fluoro-3-(trifluoromethyl)phenyl)cyclopropane-1-carboxamido)-N-(4-fluoro-3-(2,2,2-trifluoroacetamido)phenyl)benzamide], the pest or weed control at 50 µg/cm2 in data set [1] (setting [10]) and in data set [3] (setting [11]) was 50 to 100% each time. In data set [2] (Yellow Fever Mosquito), the YFM rating entry is on record as “A (80–100)”.
Consider `O=C(NCCCNC(=O)C(F)(F)C(F)(F)F)c1cc(NC(=O)[C@H]2[C@H](c3cc(Cl)cc(Cl)c3)C2(Cl)Cl)ccc1Cl` (relative stereo) [F2097, trans-2-Chloro-5-(2,2-dichloro-3-(3,5-dichlorophenyl)cyclopropane-1-carboxamido)-N-(3-(2,2,3,3,3-pentafluoropropanamido)propyl)benzamide], for which the pest or weed control at 50 µg/cm2 in data set [1] (setting [10]) and in data set [3] (setting [11]) was 50 to 100% in each case. Further, the YFM rating entry in data set [2] (Yellow Fever Mosquito) is reported as “A (80–100)”.
In the case of `O=C(Nc1ccc(F)c(I)c1F)c1cc(NC(=O)[C@H]2[C@H](c3ccc(F)c(C(F)(F)F)c3)C2(Cl)Cl)ccc1Cl` [F1758, 2-Chloro-5-((1R,3R)-2,2-dichloro-3-(4-fluoro-3-(trifluoromethyl)phenyl)cyclopropane-1-carboxamido)-N-(2,4-difluoro-3-iodophenyl)benzamide], the pest or weed control at 50 µg/cm2 in data set [1] (setting [4]) and in data set [3] (setting [6]) was 50 to 100% in each case. Besides, the YFM result in data set [2] (setting [5]) is “A (80–100)”.
With `O=C(NNC(=O)c1cc(NC(=O)[C@H]2[C@H](c3cc(Cl)cc(Cl)c3)C2(Cl)Cl)ccc1Cl)c1ccccc1` (relative stereo) [F2519, trans-N-(3-(2-Benzoylhydrazine-1-carbonyl)-4-chlorophenyl)-2,2-dichloro-3-(3,5-dichlorophenyl)cyclopropane-1-carboxamide], the pest or weed control at 50 µg/cm2 in data set [1] (setting [10]) and in data set [3] (setting [11]) was 50 to 100% each time. Further, in data set [2] (Yellow Fever Mosquito), the YFM rating entry is given as “A (80–100)”.

(Values after patent publication US20250228239A1, “MOLECULES HAVING PESTICIDAL UTILITY, AND INTERMEDIATES, COMPOSITIONS, AND PROCESSES, RELATED THERETO” (priority 2024, published 2025).)
